From ChEMBL document CHEMBL2203061, “O-Aryl α,β-d-ribofuranosides: synthesis & highly efficient biocatalytic separation of anomers and evaluation of their Src kinase inhibitory activity” (Bioorg Med Chem, 2012)
Active and inactive are the calls of the source. No cut-off for these calls is given here.

Target: T1, Proto-oncogene tyrosine-protein kinase Src (Homo sapiens, UniProt P12931)
Assay: Inhibition of GST-tagged c-Src up to 100 uM preincubated for 5 mins measured after 30 mins

T1 sequence (P12931 2-536 limits assumed): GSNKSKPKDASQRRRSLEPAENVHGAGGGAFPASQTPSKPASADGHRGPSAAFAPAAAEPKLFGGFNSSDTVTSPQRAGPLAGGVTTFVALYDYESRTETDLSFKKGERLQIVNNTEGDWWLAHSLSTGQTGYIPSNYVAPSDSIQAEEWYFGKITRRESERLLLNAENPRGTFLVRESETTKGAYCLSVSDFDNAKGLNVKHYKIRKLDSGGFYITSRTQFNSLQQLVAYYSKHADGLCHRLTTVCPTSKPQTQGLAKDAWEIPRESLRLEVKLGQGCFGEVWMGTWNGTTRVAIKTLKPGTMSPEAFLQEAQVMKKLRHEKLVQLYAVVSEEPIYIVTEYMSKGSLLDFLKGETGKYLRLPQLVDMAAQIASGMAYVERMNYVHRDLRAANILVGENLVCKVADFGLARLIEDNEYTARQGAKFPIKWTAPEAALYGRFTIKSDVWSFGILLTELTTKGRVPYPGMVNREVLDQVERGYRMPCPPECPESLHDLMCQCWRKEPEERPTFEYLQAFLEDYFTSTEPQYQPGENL

| Structure (SMILES) | inhibition |
| --- | --- |
| OC[C@H]1O[C@H](Oc2ccc(-c3ccccc3)cc2)[C@H](O)[C@@H]1O | inactive |
| COc1ccc(O[C@H]2O[C@H](CO)[C@@H](O)[C@H]2O)cc1 | inactive |

Results, then the compound that gave them:

| inhibition | Structure (SMILES) |
| --- | --- |
| inactive | COc1cccc(O[C@H]2O[C@H](CO)[C@@H](O)[C@H]2O)c1 |
| inactive | OC[C@H]1O[C@H](Oc2ccc(O)cc2)[C@H](O)[C@@H]1O |

Target: T1, Proto-oncogene tyrosine-protein kinase Src
Assay: Inhibition of GST-tagged c-Src preincubated for 5 mins measured after 30 mins

| Structure (SMILES) | IC50 |
| --- | --- |
| Cc1ccc(O[C@@H]2O[C@H](CO)[C@@H](O)[C@H]2O)cc1 | 143 µM |
| OC[C@H]1O[C@@H](Oc2ccc3ccccc3c2)[C@H](O)[C@@H]1O | 225 µM |
| OC[C@H]1O[C@@H](Oc2cccc3ccccc23)[C@H](O)[C@@H]1O | 1370 µM |
| OC[C@H]1O[C@H](Oc2cccc3ccccc23)[C@H](O)[C@@H]1O | 185 µM |

Other lines, results leading:

| IC50 | Structure (SMILES) |
| --- | --- |
| 272 µM | OC[C@H]1O[C@@H](Oc2ccc(O)cc2)[C@H](O)[C@@H]1O |
| 95 µM | COc1cccc(O[C@@H]2O[C@H](CO)[C@@H](O)[C@H]2O)c1 |
| 125 µM | OC[C@H]1O[C@@H](Oc2ccc(-c3ccccc3)cc2)[C@H](O)[C@@H]1O |
| 451 µM | Cc1cccc(O[C@H]2O[C@H](CO)[C@@H](O)[C@H]2O)c1 |
| 297 µM | OC[C@H]1O[C@H](Oc2ccc3ccccc3c2)[C@H](O)[C@@H]1O |
| 484 µM | COc1ccc(O[C@@H]2O[C@H](CO)[C@@H](O)[C@H]2O)cc1 |
